Here are results for 1 compound from patent publication US12714718B2, “Treatment of 22Q11.2 deletion syndrome with cannabidiol” (priority 2018, dated 2026).

The conditions of series [1]: cited from earlier work.
A further series has as its system children and adults. The following applies: in vivo; cited from earlier work.
Series [2] concerns children and adolescents with 22q11.2 Deletion Syndrome. Description: Safety and tolerability monitoring, open-label ZYN002 study. The format is in vivo, human. The following applies: up to 14 weeks. The protocol:
(§1) Methodology: This was an open-label study to assess the safety, tolerability and efficacy of CBD administered as ZYN002, a transdermal gel, for the treatment of child and adolescent patients with 22q11.2 deletion syndrome. Male and female patients with 22q11.2 deletion syndrome were treated in Period 1 for 14 weeks with 250 mg and 500 mg of CBD (patients ≤35 kg received 250 mg CBD daily; patients >35 kg received 500 mg CBD daily). For patients with less than a 25% improvement from baseline in the ABC-C irritability subscale, the investigator could increase the total daily dose at Week 6 of treatment. Twenty male and female patients, ages 6 to <18 years, received ZYN002.
Safety Monitoring: Patient safety was monitored at each study visit using standard measures, including physical and neurological exams, examination of skin at application sites for irritation, vital signs, 12-lead ECGs, the C-SSRS, safety laboratory tests, and AE monitoring.
Each application consisted of one sachet of ZYN002 CBD 4.2% concentration, containing 2.98 g of gel. At Week 6, if the patient had less than a 25% improvement from baseline in the ABC-C irritability subscale, the investigator increased the dose as follows: • Patients who weigh ≤35 kg receiving a total daily dose of 250 mg CBD had their daily dose increased to 500 mg. […]

The test system is the same in series [3]. Description: Aberrant Behavior Checklist-Community (ABC-C), open-label ZYN002 study. The following applies: Week 6 and Week 14. The format is in vivo, human.
Text: Aberrant Behavior Checklist-Community (ABC-C): The Aberrant Behavior Checklist-Community, 2nd Edition, was completed by the parent/caregiver, with support from the site staff. The ABC-C asks responders to rate behaviors from “0—not at all a problem” to “3—the problem is severe in degree” across 58 questions.
Each application consisted of one sachet of ZYN002 CBD 4.2% concentration, containing 2.98 g of gel. […]
The test system is the same in series [4]. Nature of the series: Clinical Global Impression-Improvement (CGI-I), open-label ZYN002 study. The format is in vivo, human. How it is done:
as §1
Clinical Global Impressions Scale-Improvement: The Clinical Global Impression Scale, Improvement (CGI-I), is commonly used in clinical trials as they allow the clinician to utilize the history from the caregiver and incorporate the score into a clinical rating for the severity of symptoms. CGI-I is a 7-point scale that is used to assess how much the patient's behavioral symptoms associated with 22q11.2 deletion syndrome have improved, or worsened, relative to a baseline assessment at the beginning of the treatment.
Each application consisted of one sachet of ZYN002 CBD 4.2% concentration, containing 2.98 g of gel. At Week 6, if the patient had less than a 25% improvement from baseline in the ABC-C irritability subscale, the investigator increased the dose as follows: • Patients who weigh ≤35 kg receiving a total daily dose of 250 mg CBD had their daily dose increased to 500 mg. Each application consisted of two sachets of ZYN002 CBD 4.2% concentration, containing 2.98 g of gel. • Patients >35 kg received 250 mg CBD applied Q12H (±2 hours); total daily dose of 500 mg CBD. […]
(§2) Statistical Methods: Descriptive statistics (mean, median, standard deviation, minimum, and maximum) for continuous data and number (n) and percentage (%) for categorical data were determined for all efficacy and safety parameters.

Series [5] deals with adults with social phobia. The following applies: crossover trial; cited from earlier work.
In series [6] the test system is children and adolescents with 22q11.2 Deletion Syndrome. Description: Pediatric Anxiety Rating Scale (PARS), open-label ZYN002 study. The format is in vivo, human. The following applies: Week 14. The protocol: as §1
Pediatric Anxiety Rating Scale (PARS): The PARS is a clinician-rated caregiver interview that covers 61 behaviors related to anxiety (Riddle M A, et al, The Pediatric Anxiety Rating Scale (PARS) Development and Psychometric Properties, J. Am. Acad. Child Adolesc. Psychiatry, 2002, 4(9):1061-1069). The PARS provides broad coverage of separation anxiety, social phobia, and generalized anxiety. […] The interviewer assesses the severity by quantifying the frequency and degree of interference and avoidance in family, school and community settings. Each of seven severity items is scored on a scale of 1 to 5, with 5 being the most severe and frequent. […]

The test system is the same in series [7]. Nature of the series: Anxiety, Depression, and Mood Scale (ADAMS), open-label ZYN002 study. The following applies: Week 6 and Week 14. The format is in vivo, human. How it is done: as §1
Anxiety, Depression, and Mood Scale (ADAMS): The Anxiety, Depression, and Mood Scale was completed by the parent/caregiver, with support from the site staff. The ADAMS was used as a comprehensive assessment of anxiety, depression, and mood among the patients. […]
as §2

With `C=C(C)C1CCC(C)=CC1c1c(O)cc(CCCCC)cc1O` (stereo not shown) [CBD, 2-[3-methyl-6-(1-methylethenyl)-2-cyclohexen-1-yl]-5-pentyl-1,3-benzenediol], the “solubility in water, in words” value in series [1] was “virtually insoluble in water”. In the series on children and adults, the “tolerability in children and adults” value was “generally well tolerated”. Moreover, in series [2], the “tolerability of transdermal administration” value was “well tolerated”. In addition, the “ABC-C all five subscales vs baseline, in words” value in series [3] is “statistically and clinically meaningful improvements”. In addition, in series [4], the “patients being much improved or very much improved (CGI-I)” value amounted to 62.5% and the “patients rated by clinicians as improved, much-improved or very much improved (CGI-I)” value is “Seventy-five”. The “CGI-I, majority of patients, in words” value in series [4] (Week 6 and Week 14) is “clinically meaningful improvements”. For the same compound, in series [5], the “physiological and cognitive indicators of anxiety” value is “significant and clinically meaningful reductions”. The “PARS vs baseline, in words” value in series [6] is on record as “statistically significant improvements”. Also, the “ADAMS total score and all five subscales vs baseline, in words” value in series [7] is “statistically significant improvements”.
